The target in one data set is T1, DDX3X helicase activity (Homo sapiens, UniProt O00571).
T1 construct: Recombinant his-tagged human full length DDX3X; His tag; made in house; host or cells: ShuffleT7 E. coli
Nature of the data set: FRET-based DDX3X helicase assay. The data set is classed as biochemical. To be noted: FRET helicase assay, recombinant DDX3X; for IC50: read-out: IC50 ± SD, DDX3X anti-enzymatic (helicase) activity. On the procedure:
Recombinant his-tagged human full length DDX3X cloned the E. coli expression vector pET-30a(+). ShuffleT7 E. coli cells were transformed with the plasmid and grown at 37 °C up to OD600 = 0.7. DDX3X expression was induced with 0.5 mM IPTG at 15 °C O/N. Cells were harvested by centrifugation, lysed, and the crude extract was centrifuged at 100,000 g for 60 min at 4 °C in a Beckman centrifuge before being loaded onto a FPLC Ni-NTA column (GE Healthcare, Chicago, IL, USA). The column was equilibrated in Buffer A (50 mM Tris-HCl pH 8.0, 250 mM NaCl, 25 mM Imidazole and 20% glycerol). After extensive washing in Buffer A, the column was eluted with a linear gradient in Buffer A from 25 to 250 mM Imidazole. Proteins in the eluted fractions were visualized on SDS-PAGE and tested for the presence of DDX3X by Western blot with anti-DDX3X A300-475A (Bethyl Laboratories, Montgomery, TX, USA) at 1:4000 dilution in 5% milk. Fractions containing the purest DDX3X protein were pooled and stored at −80 °C.
The dsRNA substrate for the helicase assay was prepared by hybridizing two ss RNA oligonucleotides with the following sequences: • Fluo-FAM 5′ […] 3′ • Qu-BHQ1 5′ […] 3′ • DNA capture 5′ […] 3′.
The sequence in Fluo-FAM complementary to Qu-BHQ1 is underlined. Fluo-FAM carries a 6-carboxyfluorescein fluorophore at its 3′ end, while Qu-BHQ1 carries a Black Hole quencher group at its 5′ end. The DNA capture oligonucleotide is complementary to the Qu-BHQ1 oligonucleotide, but it bears no modifications. A helicase assay using the dsRNA substrate was performed in 20 mM TrisHCl (pH 8), 70 mM KCl, 2 mM MgCl2, 2 mM dithiothreititol, 12 units RNasin (Promega), 2 mM ATP, 50 nM dsRNA, and 100 nM capture strand in 20 μL of reaction volume. The unwinding reaction was started by adding 60 pmols of DDX3X recombinant protein and carried out at 37 °C for 40 min using a LightCycler 480 (Roche, Basel, Switzerland). The fluorescence intensity was recorded every 30 s. Values of fluorescence signal in the presence or in the absence of inhibitor molecules were analyzed by linear interpolation, and the corresponding slope values were used to determine the apparent unwinding rate.
The IC50 values have been calculated from dose–response curves. Data (in triplicate) were plotted and analyzed by least-squares nonlinear regression, according to the method of Marquardt–Levenberg, with the computer program GraphPad Prism 6.0. Data were fitted to the following equation:Eobs = Emax/(1 + (IC50/[I])^n)(1) where E(obs) is the observed enzymatic activity in the presence of each inhibitor dose [I]; E(max) is the maximal enzymatic activity in the absence of the inhibitor; and n is an exponential term to take into account sigmoidal dose–response curves.
All the compounds were tested for their ability to inhibit the helicase activity of DDX3X using a fluorescence resonance energy transfer (FRET)-based assay, as previously described. Values of fluorescence signal in the presence or in the absence of inhibitor molecules were analyzed by linear interpolation (for details, see Methods 2.3.2).

The test system of a further data set is BJ primary fibroblasts. Nature of the data set: Cytotoxicity against BJ primary fibroblasts. The data set is classed as cell-based. How it is done: For CellTiter 96® Aqueous One Solution Cell Proliferation Assay (MTS) (Promega, Madison, WI, USA), cells were seeded at 5 × 10^3 per well in 96-well plates in quadruplicate together a control with no cells to evaluate the background. After 24 h, the culture medium was removed, and fresh medium containing increasing concentrations of chemical compounds was added to cells. The fixed final concentrations were 0.1 μM, 1 μM, 10 μM, and 100 μM. DMSO was the vehicle used for dilution of the compounds, and its final concentration on cells was less than 0.2%. Medium-only containing wells were included as controls. Cells were incubated with compounds at different concentrations for 72 h, then, 20 µL of CellTiter 96® AQueous One Solution Reagent was added into each well. After 3 h at 37 °C in a humidified, 5% CO2 atmosphere, the absorbance at 492 nm was recorded using an EZREAD400 (Biochrom, Cambridge, United Kingdom) plate reader. The average 490 nm absorbance from the “no cell” control wells was subtracted from all other values to yield background-corrected absorbance. Dose–response curves and CC50 values have been calculated by plotting the absorbance data as a function of inhibitor concentrations and fitting the data by least-squares nonlinear regression, according to the method of Marquardt–Levenberg, with the computer program GraphPad Prism 6.0.
Cells were incubated with a scalar concentration of DDX3X inhibitors, and after 72 h of treatment, cell viability was assessed by cytotoxicity assay. […] Compounds 4, 6, and BA103 were also evaluated against BJ primary fibroblasts; compound 4 has a cytotoxicity value of 84.7 μM; on the contrary, compounds 6 and BA103 were not toxic up to 200 μM concentration. This further excluded a possible nonspecific cytotoxic effect. […] Due to its interesting profile, compound BA103 was further tested against additional pulmonary (A549), breast (MDA-MB-231), colorectal (HCT-116), osteosarcoma (U2OS), rhabdomyosarcoma (RD18), GBM (DBTRG, U87, and U251) and medulloblastoma (DAOY) cancer cell lines.

T1 sequence (O00571 whole entry): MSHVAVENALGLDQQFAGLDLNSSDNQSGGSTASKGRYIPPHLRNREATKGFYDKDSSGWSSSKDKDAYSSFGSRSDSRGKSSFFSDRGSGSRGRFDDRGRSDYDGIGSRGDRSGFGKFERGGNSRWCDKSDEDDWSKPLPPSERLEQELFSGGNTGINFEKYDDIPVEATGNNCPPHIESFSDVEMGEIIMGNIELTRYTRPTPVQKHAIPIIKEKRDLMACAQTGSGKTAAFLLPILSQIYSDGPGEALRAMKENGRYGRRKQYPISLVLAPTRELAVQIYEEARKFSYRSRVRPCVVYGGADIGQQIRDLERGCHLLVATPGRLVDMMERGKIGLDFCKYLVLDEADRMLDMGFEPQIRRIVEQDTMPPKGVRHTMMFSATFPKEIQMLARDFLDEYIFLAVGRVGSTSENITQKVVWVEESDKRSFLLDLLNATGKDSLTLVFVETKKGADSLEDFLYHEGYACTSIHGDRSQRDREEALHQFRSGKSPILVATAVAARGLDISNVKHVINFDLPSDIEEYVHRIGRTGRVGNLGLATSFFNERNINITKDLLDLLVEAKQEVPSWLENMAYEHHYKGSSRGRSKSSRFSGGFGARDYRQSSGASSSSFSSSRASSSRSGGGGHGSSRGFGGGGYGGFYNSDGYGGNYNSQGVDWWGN

On to `CCCCc1cn(-c2ccc(NC(=O)Nc3ccccc3C(F)(F)F)cc2)nn1` [BA103, 1-(4-(4-Butyl-1H-1,2,3-triazol-1-yl)phenyl)-3-(2-(trifluoromethyl)phenyl)urea], for which, at DDX3X helicase activity, the “IC50 ± SD, DDX3X anti-enzymatic (helicase) activity” value (shortened to “IC50 ± SD, DDX3X anti-enzymatic”) is reported as “submicromolar range” and the IC50 was found to be 0.4 ± 0.05 µM. For the same compound, the cytotoxicity value in the data set with BJ primary fibroblasts was over 200 µM.

With `CCCCc1cn(-c2ccc(NC(=O)Nc3ccccc3C)cc2)nn1` [Compound 1, reference compound], on DDX3X helicase activity, the IC50 was 0.3 ± 0.07 µM.

`CCCCc1nnc(-c2ccc(NC(=O)Nc3ccccc3C(F)(F)F)cc2)[nH]1` [Compound 4, 1-(4-(5-Butyl-4H-1,2,4-triazol-3-yl)phenyl)-3-(2-(trifluoromethyl)phenyl)urea]: on DDX3X helicase activity, the “IC50 ± SD, DDX3X anti-enzymatic” value was “submicromolar range” and the IC50 is 0.07 ± 0.02 µM. In the data set with BJ primary fibroblasts, this compound came in with a cytotoxicity value of 84.7 µM.

Turning to `CCCCn1nnc(-c2ccc(NC(=O)Nc3ccccc3C(F)(F)F)cc2)n1` [Compound 6, 1-(4-(2-Butyl-2H-tetrazol-5-yl)phenyl)-3-(2-(trifluoromethyl)phenyl)urea], the “IC50 ± SD, DDX3X anti-enzymatic” value on DDX3X helicase activity was “submicromolar range”. Further, the cytotoxicity value in the data set with BJ primary fibroblasts was over 200 µM.

On to `CC(C)CCc1cn(-c2ccc(NC(=O)Nc3cccc4cnccc34)cn2)nn1` [Compound 10, 1-(6-(4-Isopentyl-1H-1,2,3-triazol-1-yl)pyridin-3-yl)-3-(isoquinolin-5-yl)urea], for which, at DDX3X helicase activity, the “IC50 ± SD, DDX3X anti-enzymatic” value is on record as “submicromolar range” and the IC50 was 0.1 ± 0.03 µM.

The record behind these values is PMC8582824, “Targeting DDX3X Helicase Activity with BA103 Shows Promising Therapeutic Effects in Preclinical Glioblastoma Models” (Cancers, 2021).
